# In patent publication US9056835B2, “LPA2 receptor-specific benzoic acid derivatives” (University of Tennessee Research Foundation, priority 2012, dated 2015):
# Assays:
# GPR87 = GPR87 (Homo sapiens, UniProt Q9BY21); assay: LPA receptor-mediated Ca2+ mobilization assay, GPR87; assay type: cell-based; conditions: for inhibition of GPR87 Ca2+ response: 10 μM, ~EC75 LPA 18:1; for GPR87 Imax (%): inhibition by 10 μM compound of ~EC75 LPA 18:1 Ca2+ response; for EC50: agonist, Ca2+ mobilization
# Description: (§1) Similarity searches were performed separately using each fingerprint to quantitate similarity. Hits meeting the 80% similarity threshold from each search were ranked based on the Tanimoto coefficient measure of similarity to a target molecule NSC12404, and the top 75 unique hits from each fingerprint search were selected for further analysis. The 225 compounds selected for further analysis were clustered based on Tanimoto coefficients calculated using Molecular ACCess System-key fingerprints (MACCS keys) and evaluated using the diversity subset function implemented in MOE. This selected a diverse subset of 27 compounds for biological evaluation by choosing the middle compounds in each cluster. These 27 compounds were tested in Ca^2+ mobilization assays at a concentration of 10 μM using stable cell lines individually expressing LPA2 and also in vector-transfected control cells. Hits activating LPA2 were further tested using cells expressing the other established and putative LPA GPCRs. Experimental testing of the selected compounds identified the three new selective LPA2 agonists: GRI977143, H2L5547924, and H2L5828102. […] They arbitrarily selected GRI977143 for further characterization in cell-based assays.
# (§2) J Biol Chem (2009) 284(25): 17304-17319). […] The cells were loaded with Fura-2-acetoxymethyl esther (Fura-2/AM) in Krebs buffer containing 0.01% pluronic acid for 30 min and rinsed with Krebs buffer before measuring Ca^2+ mobilization. The ratio of peak emissions at 510 nm after 2 min of ligand addition was determined for excitation wavelengths of 340 nm/380 nm. All samples were run in quadruplicate. […] The half maximally effective concentration (EC50), and inhibitory constant (Ki) values were calculated by fitting a sigmoid function to dose-response data points using KaleidaGraph software (version 4.1, Synergy Software; […]).
# (§3) Mouse embryonic fibroblast (MEF) cells were isolated from E13.5 LPA1&2 double knockout (DKO) embryos. MEFs were transduced with empty vector or LPA2-containing lentiviruses and selected with 1.5 μg/ml puromycin. Cells were maintained in Dulbecco's modified Eagle medium (DMEM) supplemented with 10% (V/V) fetal bovine serum (FBS), 2 mM L-glutamine, 100 U/mL penicillin, and 100 μg/mL streptomycin. Serum-free medium contained 0.1% (W/V) BSA in DMEM. The rat intestinal epithelial cell line 6 (IEC-6) was obtained from the American Type Culture Collection (Rockville, Md.) at passage 13; passages 16-21 were used in all experiments. IEC-6 cells were maintained in a humidified 37° C. incubator in an atmosphere of 90% air and 10% CO2. Growth medium consisted of DMEM supplemented with 5% heat inactivated FBS, 10 μg/mL insulin, and 50 μg/mL gentamycin. The composition of the serum-starvation medium was the same as that of the full growth medium except that it contained no FBS. The McArdle rat hepatoma cell line (RH7777) stably expressing LPA2 receptors was a gift from Dr. Fumikazu Okajima (Gunma University, Maebashi, Japan). RH7777 cells stably expressing LPA1 or LPA3 receptors were generated in-house and had been characterized earlier. Wild type and LPA receptor (LPAR) stably transfected RH7777 cells were grown in DMEM supplemented with 10% FBS and 2 mM L-glutamine in the presence of 250 μg/ml G418. Chinese hamster ovary (CHO) cells stably expressing either vector or LPA4 receptor were a kind gift from Dr. Takao Shimizu (Tokyo University; Tokyo, Japan). Cells were cultured in Ham's F12 medium containing 10% FBS, 2 mM L-glutamine, and 350 μg/ml G418. Rat neuroblastoma cells (B103) were transduced with the lentivirus harboring wild type of FLAG-LPA5 and selected with puromycin to establish the stable cell lines. The stable cells were maintained in DMEM supplemented with 10% FBS and 0.4 μg/ml puromycin. GPR87- and P2Y10-expressing CHO cells and vector-transfected control cells were a gift from Dr. Norihisha Fujita (Ritsumeikan University; Shiga, Japan). […]
# LPA1 = biological target: T1, LPA1 (Homo sapiens, UniProt Q92633); assay: LPA receptor-mediated Ca2+ mobilization assay, LPA1; assay type: cell-based; conditions: for inhibition of LPA1 Ca2+ response: 10 μM, ~EC75 LPA 18:1; for LPA1 Imax (%): inhibition by 10 μM compound of ~EC75 LPA 18:1 Ca2+ response; for EC50: agonist, Ca2+ mobilization
# T1 construct: expressed in transfected cells
# T1 sequence (Q92633 whole entry, species assumed): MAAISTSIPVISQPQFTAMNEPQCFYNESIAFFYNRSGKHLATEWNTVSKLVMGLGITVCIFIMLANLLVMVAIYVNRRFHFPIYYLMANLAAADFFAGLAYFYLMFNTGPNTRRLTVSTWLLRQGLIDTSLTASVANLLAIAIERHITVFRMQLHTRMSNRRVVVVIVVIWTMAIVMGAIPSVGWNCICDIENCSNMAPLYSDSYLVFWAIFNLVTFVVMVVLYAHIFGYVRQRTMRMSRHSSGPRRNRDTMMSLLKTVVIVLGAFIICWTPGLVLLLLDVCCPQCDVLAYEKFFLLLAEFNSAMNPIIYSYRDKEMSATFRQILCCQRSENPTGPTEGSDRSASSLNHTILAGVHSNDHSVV
# Description: as §1, §2, §3
# [1] = test system: vector- and LPA2-transduced MEF cells; assay: Adriamycin-induced apoptosis, caspase activity assay; assay type: cell-based, mouse; conditions: for decrease in caspase-8 activation / decrease in caspase 9 activation: GRI977143 10 μM; for protection against caspase 3 and 7 activation: GRI977143 above 3 μM; for inhibition of caspase 3/7 activation: 10 μM
# Description: Experiments were performed on vector- and LPA2-transduced MEF cells. To measure caspase 3, 7, 8, or 9 activity and DNA fragmentation, cells were plated in 48-well plates (2×10^4 cells/well). To detect PARP-1 cleavage and Bax translocation, 1.5×10^6 cells were plated in 10-cm dishes and cultured overnight in full growth medium. The next morning, the growth medium was replaced by serum-starvation medium and cells were pretreated for 1 h with LPA (1-10 μM), OTP (1-10 μM), GRI977143 (1-10 μM), or vehicle. Caspase activity, DNA fragmentation, PARP-1 cleavage, and Bax translocation were measured 5 h after incubation with 1.7 μM Adriamycin or 24 h after serum withdrawal.
# Caspase-Glow® 3/7, Caspase-Glow® 8 and Caspase-Glow® 9 reagents were purchased from Promega (Madison, Wis.) and used according to the manufacturer's instructions. Briefly, cells were lysed by adding 50 μl of lysis reagent per well, followed by shaking for 30 min at room temperature. […] lysate were transferred to a 96-well white-wall plate, and luminescence was measured using a BioTek® (Winooski, Vt.) plate reader.
# [2] = LPA2-transduced MEF, LPA and OTP 1 μM
# [3] = vector-transduced MEF, LPA and OTP 1 μM
# GPR87, sequence (Q9BY21 whole entry): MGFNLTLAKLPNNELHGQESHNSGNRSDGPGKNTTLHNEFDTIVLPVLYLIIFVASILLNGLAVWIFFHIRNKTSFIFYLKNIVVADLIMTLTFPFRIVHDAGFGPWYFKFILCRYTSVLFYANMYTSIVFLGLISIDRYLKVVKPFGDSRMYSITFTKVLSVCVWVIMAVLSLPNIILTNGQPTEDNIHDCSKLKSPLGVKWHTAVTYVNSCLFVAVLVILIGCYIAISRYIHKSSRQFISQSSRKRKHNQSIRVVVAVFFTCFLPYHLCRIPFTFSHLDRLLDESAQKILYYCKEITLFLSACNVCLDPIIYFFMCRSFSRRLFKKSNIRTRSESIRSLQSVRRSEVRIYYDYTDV
Molecule,inhibition of GPR87 Ca2+ response (GPR87),GPR87 Imax (%) (GPR87),inhibition of LPA1 Ca2+ response (LPA1),LPA1 Imax (%) (LPA1),EC50 (GPR87) [nM],"decrease in caspase-8 activation [1, 2] [%]","decrease in caspase 9 activation ([1]; LPA2-transduced MEF, OTP 1 μM) [%]",protection against caspase 3 and 7 activation ([1]; LPA2-transduced MEF),inhibition of caspase 3/7 activation ([1]; vector-transduced MEF),"decrease in caspase 9 activation [1, 3]",EC50 (LPA1) [nM],"decrease in caspase 8 activation [1, 3] [%]"
O=C(O)c1cc(Cl)c(Cl)cc1C(=O)Nc1ccc2c(c1)C(=O)c1ccccc1-2 [Compound H2L5547924],partially inhibited,31,partially inhibited,21,,,,,,,,
O=C(O)c1ccccc1C(=O)Nc1ccc2c(c1)C(=O)c1ccccc1C2=O [Compound H2L5828102],partially inhibited,21,partially inhibited,29,,,,,,,,
O=C(O)c1ccccc1SCCCN1C(=O)c2cccc3cccc(c23)C1=O [GRI977143],,,,,> 10000,41±5,46±4,significant protection,did not attenuate,did not affect,,
"CCCCCCCC/C=C\CCCCCCCC(=O)OC[C@@H](O)COP(=O)(O)O [LPA 18:1, Lysophosphatidic acid (18:1)]",,,,,49,36±1,,protected,26±1%,,130,12±2
O=C(O)c1ccccc1C(=O)Nc1ccc2c(c1)C(=O)c1ccccc1-2 [NSC12404],,,,,> 10000,,,,,,> 10000,
octadecenyl thiophosphate [OTP],,,,,3000,33±2,38±1,protected,did not attenuate,,651,15±5
